Results published in patent US10507218B2, “Treatment of cardiovascular disease by using gallium compounds to bind calcified lesions” (LIPIDRISK, LLC, priority 2018, dated 2019).

Key:
[1] = Treatment of plantar fasciitis by topical gallium nitrate solution (single patient); assay type: in vivo, human
Method: The patient was having continuous severe pain from the plantar fasciitis for over six months after treatments with injected cortisone, special braces and hydrotherapy none of which gave relief.
Patient was treated with 5 ml's of 14% gallium nitrate solution applied to the bottom of the affected foot for 30 minutes every other day for three treatments. After each treatment the remaining solution was washed off and the exact amount of absorbed gallium nitrate was not measured. […] The plantar fasciitis has not returned for 10 years. The pain elimination from reduced inflammation is an indicator that the gallium ions bonded to the calcified structures at an inflammation site.

[2] = Treatment of rheumatoid arthritis of the wrist by topical gallium nitrate solution (single patient); assay type: in vivo, human; details: about 100 mg
Method: Patient had persistent rheumatoid arthritis of the wrist for over six months and was treated with a single dose of ¾ ml of 14% gallium nitrate solution, about 100 mg, as a topical application for one hour. […] Again, the pain elimination from reduced inflammation is an indicator that the gallium ions bonded to the calcified structures at an inflammation site.

[3] = design: dose or concentration left out as unconfirmed; details: of gallium nitrate over 5-7 days; cited from earlier work
[4] = animal studies; cited from earlier work

Question: For `O=[N+]([O-])[O-].O=[N+]([O-])[O-].O=[N+]([O-])[O-].[Ga+3]` [gallium nitrate], which “pain relief after each treatment” value ([1]; 5 ml of 14% gallium nitrate solution on bottom of affected foot, 30 minutes, every other day, three treatments) is on record?
Answer: complete relief of pain for several hours after each treatment

Question: What about the “time without return of plantar fasciitis” value ([1]; after three topical treatments) of the same molecule?
Answer: ≥ 10 years

Question: What about the “pain outcome after the third treatment” value ([1]; one week after third topical treatment) of the same molecule?
Answer: the pain disappeared completely one week later

Question: And the immediate pain relief ([2]; single topical dose of ¾ ml of 14% gallium nitrate solution, one hour)?
Answer: Some pain relief was noticed immediately

Question: And the “arthritic pain after two months” value ([2]; single topical dose)?
Answer: the arthritic pain was not noticeable

Question: What about the “duration without arthritic pain in the wrist” value ([2]; single topical dose) of the same molecule?
Answer: has not experienced arthritic pain in the wrist for two years

Question: What about the “reduction of calcium excretion” value [3] of the same molecule?
Answer: 70+18%

Question: What about the “carbonyl oxidation and protein nitration” value [4] of the same molecule?
Answer: reduction of carbonyl oxidation and protein nitration
